Source: patent publication US20250041226A1, “MULTIPARTICULATE ALBACONAZOLE COMPOSITION” (PALAU PHARMA, S.L.U., priority 2021, published 2025)

Assays:
[1] = Dissolution test (Ph. Eur. 2.9.3, paddle apparatus, 0.1 N HCl, 45 min); assay type: physicochemical; conditions: HCl 0.1N, 45 minutes where stated
Procedure: • Analytical procedure: Ph. Eur. <2.9.3>; UVNis
• Paddle apparatus. • Stirring speed: 100 rpm. • Dissolution medium: 0.1 N Hydrochloric acid.
0.1 N Hydrochloric acid: using a pipette, transfer 8.5 ml of hydrochloric acid to a 1,000 ml calibrated flask and dilute to volume with water HPLC grade. • Volume of dissolution medium: 900 ml. • Dissolution time: 45 min. • Temperature of dissolution medium: 37±0.5° C.

[2] = Related substances (total impurities) by HPLC in stability experiments; assay type: physicochemical; conditions: within the coating
Procedure: • Analytical procedure: Ph. Eur. <2.2.29>; HPLC
• Column: Luna C18 (2) 5 μm, 150×4.6 mm. • Mobile phase: Acetonitrile/0.5% phosphoric acid as following:
• 0.5% phosphoric acid: using a pipette, transfer 5 ml of o-phosphoric acid (85%) to a 1,000 ml calibrated flask and dilute to volume with water HPLC grade. • Flow: 1.0 ml/min. • Wavelength detection: 210 nm. • Injection volume: 20 μl. • Column temperature: 30° C. • Retention time of Albaconazole: approx. 20.0 min. • Chromatogram time: 29 min.
Test solution: Grind the content (pellets) of, at least, 5 capsules, from the obtained powder weight, accurately, about 150 mg and transfer to a 25 ml calibrated flask. Add about 20 ml of acetonitrile HPLC grade and apply the ultrasound during approximately 10 min. Allow to cool and dilute to volume with acetonitrile HPLC grade. Filter through a 0.45 μm Millex HV-PVDF filter or similar, discard the first drops of filtrate (perform in triplicate).
Individual related substances that are lower than the quantification limit (Quantification limit: QL=0.015%), and any peak corresponding to placebo have not been quantified. The compositions of the invention may be used in the treatment of fungal infections in a patient by orally administering said compositions to said patient.

Compound	Dissolution behaviour (observation in words) [1]	Impurities during stability experiments (in words) [2]
C[C@@H](n1cnc2cc(Cl)ccc2c1=O)[C@](O)(Cn1cncn1)c1ccc(F)cc1F [crystalline Albaconazole, Albaconazole]	dissolves faster at early times than amorphous Albaconazole	–
C[C@@H](n1cnc2cc(Cl)ccc2c1=O)[C@](O)(Cn1cncn1)c1ccc(F)cc1F [Albaconazole form Ill, Albaconazole]	excellent dissolution results	low impurities during stability experiments
